pEC50: −log10 of the molar value.
What was measured:
[1] = test system: DBA/2 mice; test: Bleomycin-induced dermal fibrosis mouse model (regression of established fibrosis); assay type: in vivo; conditions: 30 mg/kg, PO, QD
Procedure: (§1) DBA/2 mice were used in this study. Eight animals were used per treatment group in the study. Mice were kept in the animal house under standard conditions with food and water ad libidum.
(§2) The compound was suspended, not dissolved, in this vehicle. The formulation was homogenized with a Teflon pestle and mortar (Potter-Elvehjem tissue grinder) using a motorized Eberbach tissue homogenizer. The daily drug stock concentration used in these studies was 3 mg/ml.
(§3) Bleomycin was obtained from the pharmacy of the University of Erlangen-Nuremberg and freshly prepared once a week. Skin fibrosis was induced in 6-week-old DBA mice by local intracutaneous injections of 100 μl of bleomycin dissolved in 0.9% NaCl, at a concentration of 0.5 mg/ml, every other day in defined areas of 1.5 cm^2 on the upper back.
To evaluate regression of fibrosis, a modified model of bleomycin induced dermal fibrosis was used. Mice were pre-challenged with bleomycin to induce a robust skin fibrosis. One group received treatment with the test compound, while challenge with bleomycin was ongoing for additional three weeks. The outcome of this group was compared to mice challenged with bleomycin for six weeks (prevention of further progression) and to mice challenged with bleomycin for three weeks followed by NaCl for additional three weeks (induction of regression). The following groups were used in the regression study: • Control group: Intradermal injection of NaCl for six weeks. Control treatment consisted of administration of the vehicle. • Untreated bleomycin group 1 (regression): Intradermal injection of bleomycin for three weeks followed by intradermal injections of NaCl for another three weeks. Treatment consisted of administration of the vehicle. […]
(§4) Dermal thickness was determined by staining with hematoxylin and eosin and activated fibroblasts by using immunohistochemistry for alpha smooth muscle actin (α-SMA). The dermal thickness, as determined by the modified Rodnan Skin Score, is currently the most common primary outcome in human clinical trials for anti-fibrotic agents in SSc. […] Dermal thickness was analyzed with a Nikon Eclipse 80i microscope (Nikon, Badhoevedorp, The Netherlands) by measuring the maximal distance between the epidermal-dermal junction and the dermal-subcutaneous fat junction at 4 different skin sections in each mouse. […]
(§5) For quantification of myofibroblasts, skin sections were deparaffinized and incubated with 5% bovine serum albumin for 60 minutes. Cells positive for α-SMA were detected by incubation with monoclonal anti-α-SMA antibodies (clone 1A4; Sigma-Aldrich, Steinheim, Germany) for 2 hours at room temperature followed by incubation with 3% hydrogen peroxide for 10 minutes. […]

[2] = test system: DBA/2 mice; test: Bleomycin-induced dermal fibrosis mouse model (prevention); assay type: in vivo; conditions: 30 mg/kg, PO, QD
Procedure: as §1
The vehicle, 0.5% carboxymethyl cellulose (CMC)/0.25% Tween 80, was prepared in distilled H2O and dissolved overnight on a magnetic stirrer (add 0.5 g CMC; Sigma #C9481) and 0.25 ml Tween 80 (Sigma #P8074) to 99.75 ml to make a total of 100 ml 0.5% CMC/0.25% Tween 80).
as §2, §3
The mouse model of bleomycin induced dermal fibrosis is widely used to evaluate anti-fibrotic therapeutics. In this model, a localized dermal fibrosis is induced by intradermal injections with bleomycin every other day for 3 weeks. This model resembles early, inflammatory stages of SSc. To evaluate potential effects on prevention of fibrosis, treatment was initiated simultaneously with the first bleomycin injection. […] Treatment consisted of administration of the vehicle (0.5% CMC/0.25% Tween 80). • Untreated bleomycin group: Intradermal injection of bleomycin for three weeks. […] Injection of Imatinib (50 mg/kg; IP, QD). […] See Akhmetshina A. et al., Arthritis Rheum 2009; 60(1):219-224.
as §4, §5

[3] = test system: BCL-6, IRF-4, BLIMP-1, PAX5 and XBP-1; test: Transcription factor protein expression by laser scanning cytometry (iCyte), normal B cells; assay type: cell-based, human; conditions: Day 7, 20 nM
Procedure: Preparation Of Cytospin From Single Cell Suspension And Immunofluorescence Staining for iCyte: A cell suspension of not more than 0.5×10^6 cells/ml of 2% FBS-containing PBS was prepared. Up to 200 μl of this suspension was loaded in each cuvette and spinned at 800 rpm for 3 min. The cuvette and the paper were carefully detached without damaging the fresh cytospin and proceeded with either immediate fixation or drying. Unfixed cytospins were stored for max 2 days at room temperature. Cells on slides were fixed with increasing concentrations of EtOH and allowed to dry prior to staining. After blocking non-specific binding with normal serum (species same as secondary antibody), sections were incubated with the mixture of following monoclonal antibodies in a humidified chamber at cool room for overnight: (i) anti-human CD38 as plasmablast cell marker, and (ii) anti-BCL-6, IRF-4, BLIMP-1, PAX5 and XBP-1 for transcription factor proteins. After washings, slides were incubated for 1 hr at room temperature in dark with the mixture of secondary antibodies which were raised in different species (with two different fluorochromes, i.e., Alexa Fluor-488 and Alexa Fluor-633). The slides were then rinsed in PBS, counterstained with DAPI for 20 minutes at room temperature, coverslipped with anti-fade fluorescent mounting medium, and sealed with nail polish. The slides were stored in dark at 4° C. To exclude false positives produced by nonspecific binding of the secondary antibody, all of the tissues were treated in the same manner with buffer substituting for the primary antibody. The color of the antibody staining was observed and quantity was analyzed in the tissue sections using iCyte.

[4] = test system: IL-2; test: T-cell costimulation: IL-2 production (immobilized anti-CD3, ELISA); assay type: cell-based; conditions: Homo sapiens, 48 h, immobilized anti-CD3, 2 days, read-out: EC50 for co-stimulated IL-2 production by T cells
Procedure: CRBN ubiquitination was measured in HEK293T cells, which were transfected with an amino-terminal His-biotin-tagged CRBN construct, then preincubated with compounds for one hour followed by treatment with the MG132 proteasome inhibitor (to arrest degradation of ubiquitinated proteins). Cells were lysed and processed to measure CRBN ubiquitination by SDS-PAGE and immunoblot analysis using an anti-ubiquitin antibody. Cell proliferation studies were conducted in enalidomide-sensitive and refractory multiple myeloma cells. […] T-cell costimulation was measured in purified primary human T cells stimulated using immobilized anti-CD3 antibody in cell culture for 2 days, and cytokine secretion was measured by ELISA.

[5] = test system: IgM; test: IgM production by SLE patient PBMC (ELISA); conditions: Homo sapiens, read-out: IgM IC50 (nM) SLE (n = 3)
Procedure: Supernatants (from section 8.2.3) were harvested and analyzed by ELISA for IgG and IgM production (ZeptoMetrix Corp. Buffalo, N.Y.).
B Cell Differentiation Protocol: Enriched B cells were isolated from fresh buffy-coat (leukocyte enriched units) by Ficoll-Hypaque density gradient centrifugation followed by incubation with EasySep negative selection human B cell enrichment kit (Stem cell technologies). In brief, 2×10^8/ml PBMC were mixed with 4 ml of Robosep buffer and transferred to a 14 mL polystyrene round bottom tube. EasySep Human B cell enrichment cocktail (200 μL) was added per tube, vortexed and incubated at room temperature for 10 minutes. […] After cells were counted, an aliquot was removed for FACS analysis and the remaining cells were used for culture. […]
CD19+ peripheral blood human B cells from normal donors, or total peripheral blood mononuclear cell PBMC for patients with systemic lupus erythematosus (“SLE”), were cultured in the presence of interleukin (“IL”)-2, IL-10, IL15, TLR9 agonist, and CD40 L for 4 days, followed by IL-2, IL-6, IL-10 and IL-15 for another 3 days. Cells were counted, viability assessed, and expression of CD20, CD38, CD44, and CD83 were measured by flow cytometry. Plasmablast lineage factors IRF-4, BLIMP-1, XBP-1, and IgJ, and germinal center markers PAX-5 and BCL-6 were measured by qRT-PCR. […] Secreted immunoglobulins IgG and IgM were measured by ELISA.

[6] = CD38+ plasmablast/plasma cells, listed as Compound I-S

In the case of O=C1CC[C@H](N2Cc3c(OCc4ccc(CN5CCOCC5)cc4)cccc3C2=O)C(=O)N1 [Test compound, (S)-3-[4-(4-morphlin-4-ylmethylbenzyloxy)-1-oxo-1,3-dihydro-isoindo-2-yl]piperidine-2,6-dione], the dermal thickening [1] was “no effect”, the numbers of myofibroblasts [1] was “did not have an effect” and the “prevention of dermal thickening” value ([2]; 3 weeks, p<0.001) was “approximately 25±0.49%”. For the same compound, the “reduction of number of α-SMA+ myofibroblasts” value ([2]; p<0.05) was 24±0.09%, the BCL-6 expression ([3]; CD38+ plasmablast/plasma cells) was “significantly increased” and the BLIMP-1 expression ([3]; CD38+ plasmablast/plasma cells) was “decreased”. The IRF-4 expression ([3]; CD38+ plasmablast/plasma cells) was “decreased”, the PAX-5 expression ([3]; CD38+ plasmablast/plasma cells) was “decreased” and the BCL-6 expression [3, 6] was “increased”. For the same compound, the BLIMP-1 expression [3, 6] was “reduced”, the IRF-4 expression [3, 6] was “reduced” and the XBP-1 expression ([3]; both cell populations) was “no change”. For the same compound, the BCL-6 expression ([3]; whole lymphocyte population) was “significantly increased”, the BLIMP-1 expression ([3]; whole lymphocyte population) was “decreased” and the IRF-4 expression ([3]; whole lymphocyte population) was “decreased”. It also gave a pEC50 [4] of ~9.54 and an IC50 [5] of 0.9 nM.

Source: patent US11524950B2, “Treatment of immune-related and inflammatory diseases” (Celgene Corporation, priority 2012, dated 2022)
